From PubChem BioAssay AID330 (DTP/NCI, 2004)
Where “and” joins values, the source holds several entries; their conditions need not be identical. Equal entries are not always repeated. Inconclusive results and toxic doses are left out. How the source made its calls: active means survival T/C of 150% or more; inactive means T/C below 125% in these data. Peptide text beside a SMILES is read from it. * marks the point of attachment. Boc = CC(C)(C)OC(=O)*; NHNH2 = NN*

System: P388 leukemia ip, CD2F1 mice, survival T/C
Assay: NCI In Vivo Anticancer Drug Screen. Data for tumor model P388 Leukemia (intraperitoneal) in CD2F1 (CDF1) mice
Conditions: endpoint: median survival time, higher = longer survival
Method in brief: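 Mice carrying the transplanted tumor received test compound or vehicle. Survival was recorded in each group, and the value is the treated-group measurement divided by that of the vehicle-treated control group.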

[1] = dose: 50.0 mg/kg/injection, schedule: Q01DX009 (ip), vehicle: saline
[2] = dose: 60.0 mg/kg/injection, schedule: Q01DX005 (ip), vehicle: saline with Tween-80
[3] = dose: 120.0 mg/kg/injection, schedule: Q01DX005 (ip), vehicle: saline with Tween-80
[4] = dose: 240.0 mg/kg/injection, schedule: Q01DX005 (ip), vehicle: saline with Tween-80

Measured: T/C

O=C1CN(c2ccccc2)CC(=O)N2Cc3ccccc3CN12
inactive: dose: 6.25 mg/kg/injection, schedule: Q01DX005 (ip), vehicle: saline with Tween-80 96 % of control | dose: 12.5 mg/kg/injection, schedule: Q01DX005 (ip), vehicle: saline with Tween-80 100 % of control | dose: 25.0 mg/kg/injection, schedule: Q01DX005 (ip), vehicle: saline with Tween-80 98 % of control

COC(=O)OC(C#N)c1ccc([N+](=O)[O-])cc1 (stereo not given)
inactive: dose: 12.5 mg/kg/injection, schedule: Q01DX009 (ip), vehicle: saline 99 % of control and 88 % of control | dose: 25.0 mg/kg/injection, schedule: Q01DX009 (ip), vehicle: saline 93 % of control and 97 % of control | [1] 90 % of control and 97 % of control | dose: 50.0 mg/kg/injection, schedule: Q01DX009 (ip), vehicle: suspension in saline 97 % of control

CCOC(=O)c1cnc2ccc(C3CCCCC3)cc2c1Nc1ccc2c(c1)OCO2
inactive: [2] 99 % of control | [3] 91 % of control | [4] 91 % of control

CC(=O)OCC12CCC(C)=CC1OC1C(OS(C)(=O)=O)C(=O)C2(C)C12CO2 (stereo not given)
inactive: dose: 0.5 mg/kg/injection, schedule: Q01DX009 (ip), vehicle: saline 100 % of control | dose: 1.0 mg/kg/injection, schedule: Q01DX009 (ip), vehicle: saline 103 % of control | dose: 2.0 mg/kg/injection, schedule: Q01DX009 (ip), vehicle: saline 109 % of control | dose: 4.0 mg/kg/injection, schedule: Q01DX009 (ip), vehicle: saline 110 % of control

CC(=O)OCC1OC(n2cccc(OC(C)=O)c2=O)C(OC(C)=O)C1OC(C)=O (stereo not given)
inactive: dose: 50.0 mg/kg/injection, schedule: Q01DX005 (ip), vehicle: saline 103 % of control | dose: 50.0 mg/kg/injection, schedule: Q01DX005 (ip), vehicle: suspension in saline 99 % of control | dose: 100.0 mg/kg/injection, schedule: Q01DX005 (ip), vehicle: saline 99 % of control | dose: 100.0 mg/kg/injection, schedule: Q01DX005 (ip), vehicle: suspension in saline 99 % of control | dose: 200.0 mg/kg/injection, schedule: Q01DX005 (ip), vehicle: saline 102 % of control | dose: 200.0 mg/kg/injection, schedule: Q01DX005 (ip), vehicle: suspension in saline 113 % of control | dose: 400.0 mg/kg/injection, schedule: Q01DX005 (ip), vehicle: saline 98 % of control | dose: 400.0 mg/kg/injection, schedule: Q01DX005 (ip), vehicle: suspension in saline 96 % of control

CC(C)(C)OC(=O)C(N(Cc1ccccc1)Cc1ccccc1)N(Cc1ccccc1)Cc1ccccc1
inactive: [2] 88 % of control | [3] 88 % of control | [4] 86 % of control

Nc1ncnc(N)c1N=O
inactive: dose: 50.0 mg/kg/injection, schedule: Q04DX003 (ip), vehicle: saline with Tween-80 100 % of control | dose: 100.0 mg/kg/injection, schedule: Q04DX003 (ip), vehicle: saline with Tween-80 104 % of control | dose: 200.0 mg/kg/injection, schedule: Q04DX003 (ip), vehicle: saline with Tween-80 100 % of control

CCc1c(CNc2ccc(Cl)c(Cl)c2)ccc2nc(N)nc(N)c12
inactive: dose: 12.5 mg/kg/injection, schedule: Q01DX005 (ip), vehicle: Klucel (hydroxypropylcellulose) (HPC) 109 % of control

CCOC(=O)c1ccc(NC(=O)Nc2ccc(OC)cc2Cl)cc1
inactive: dose: 60.0 mg/kg/injection, schedule: Q01DX005 (ip), vehicle: Klucel (hydroxypropylcellulose) (HPC) 91 % of control | dose: 120.0 mg/kg/injection, schedule: Q01DX005 (ip), vehicle: Klucel (hydroxypropylcellulose) (HPC) 93 % of control | dose: 240.0 mg/kg/injection, schedule: Q01DX005 (ip), vehicle: Klucel (hydroxypropylcellulose) (HPC) 96 % of control

Nn1c(-c2cnns2)n[nH]c1=S
inactive: dose: 100.0 mg/kg/injection, schedule: Q01DX001 (ip), vehicle: Klucel (hydroxypropylcellulose) (HPC) 100 % of control | dose: 200.0 mg/kg/injection, schedule: Q01DX001 (ip), vehicle: Klucel (hydroxypropylcellulose) (HPC) 100 % of control | dose: 400.0 mg/kg/injection, schedule: Q01DX001 (ip), vehicle: Klucel (hydroxypropylcellulose) (HPC) 105 % of control

Nc1nc(-c2ccccn2)cc2cc(Cl)ccc12
inactive: [2] 99 % of control | [3] 115 % of control

CC(C)(C)OC(=O)NC(Cc1ccccc1)C(=O)NC(CO)C(=O)NN (stereo not drawn) (Boc-Phe-Ser-NHNH2; configuration not given here)
inactive: dose: 50.0 mg/kg/injection, schedule: Q01DX005 (ip), vehicle: Klucel (hydroxypropylcellulose) (HPC) 97 % of control | dose: 100.0 mg/kg/injection, schedule: Q01DX005 (ip), vehicle: Klucel (hydroxypropylcellulose) (HPC) 95 % of control | dose: 200.0 mg/kg/injection, schedule: Q01DX005 (ip), vehicle: Klucel (hydroxypropylcellulose) (HPC) 105 % of control

CN(C)CCCNc1cccc2c1C(=O)c1cccc(NCCCN(C)C)c1C2=O
inactive: dose: 4.0 mg/kg/injection, schedule: Q01DX009 (ip), vehicle: acid diluted with saline 105 % of control | dose: 7.5 mg/kg/injection, schedule: Q01DX009 (ip), vehicle: saline 101 % of control | dose: 8.0 mg/kg/injection, schedule: Q01DX009 (ip), vehicle: acid diluted with saline 105 % of control | dose: 12.5 mg/kg/injection, schedule: Q01DX005 (ip), vehicle: water 108 % of control | dose: 12.5 mg/kg/injection, schedule: Q01DX009 (ip), vehicle: water 100 % of control | dose: 15.0 mg/kg/injection, schedule: Q01DX009 (ip), vehicle: saline 108 % of control | dose: 16.0 mg/kg/injection, schedule: Q01DX009 (ip), vehicle: acid diluted with saline 104 % of control | dose: 25.0 mg/kg/injection, schedule: Q01DX005 (ip), vehicle: water 114 % of control | dose: 25.0 mg/kg/injection, schedule: Q01DX009 (ip), vehicle: water 100 % of control | dose: 30.0 mg/kg/injection, schedule: Q01DX009 (ip), vehicle: saline 100 % of control | dose: 32.0 mg/kg/injection, schedule: Q01DX009 (ip), vehicle: acid diluted with saline 104 % of control | dose: 50.0 mg/kg/injection, schedule: Q01DX005 (ip), vehicle: water 102 % of control | dose: 50.0 mg/kg/injection, schedule: Q01DX009 (ip), vehicle: water 100 % of control | dose: 60.0 mg/kg/injection, schedule: Q01DX009 (ip), vehicle: saline 102 % of control | dose: 64.0 mg/kg/injection, schedule: Q01DX009 (ip), vehicle: acid diluted with saline 102 % of control

Cc1ccc(/C=C/c2ccc3ccccc3c2)cc1
inactive: dose: 50.0 mg/kg/injection, schedule: Q01DX009 (ip), vehicle: other 108 % of control | dose: 100.0 mg/kg/injection, schedule: Q01DX009 (ip), vehicle: other 98 % of control | dose: 200.0 mg/kg/injection, schedule: Q01DX009 (ip), vehicle: other 120 % of control

O=C1Nc2ncnn2C1=O
inactive: dose: 50.0 mg/kg/injection, schedule: Q01DX009 (ip), vehicle: saline with Tween-80 108 % of control | dose: 100.0 mg/kg/injection, schedule: Q01DX009 (ip), vehicle: saline with Tween-80 111 % of control | dose: 200.0 mg/kg/injection, schedule: Q01DX009 (ip), vehicle: saline with Tween-80 99 % of control | dose: 400.0 mg/kg/injection, schedule: Q01DX009 (ip), vehicle: saline with Tween-80 96 % of control

NC(=O)CC(=O)O
inactive: [1] 96 % of control | dose: 100.0 mg/kg/injection, schedule: Q01DX009 (ip), vehicle: saline 91 % of control | dose: 200.0 mg/kg/injection, schedule: Q01DX009 (ip), vehicle: saline 104 % of control

Cn1cnc([N+](=O)[O-])c1Sc1ncnc2nc[nH]c12
inactive: dose: 216.0 mg/kg/injection, schedule: Q01DX001 (ip), vehicle: saline with Tween-80 106 % of control and 122 % of control | dose: 360.0 mg/kg/injection, schedule: Q01DX001 (ip), vehicle: saline with Tween-80 118 % of control | dose: 600.0 mg/kg/injection, schedule: Q01DX001 (ip), vehicle: saline with Tween-80 108 % of control and 79 % of control

N#CC(=Nc1cccc(F)c1)C1=C(O)c2ccccc2C1=O
inactive: [2] 100 % of control | [3] 97 % of control
